Data taken from ChEMBL document CHEMBL5046313, “Synthesis and Optimization of Nitroxide-Based Inhibitors of Ferroptotic Cell Death in Cancer Cells and Macrophages” (ACS Med Chem Lett, 2022).

Tests used:
[1] = Lipophilicity, log P of the compound; type: physicochemical; conditions: octanol/water
HT-1080 = test: Anti-ferroptotic activity against Erastin-induced ferroptosis in human HT-1080 cells assessed as cell activity measured after 24 hrs by Cell Titer-Glo luminescent assay; type: functional, cell-based; conditions: HT-1080, 24 h
RAW264.7 = test: Anti-ferroptotic activity against RSL-3 induced ferroptosis in mouse RAW264.7 cells assessed as cell activity measured after 24 hrs by Cell Titer-Glo luminescent assay; type: functional, cell-based; conditions: RAW264.7, 24 h
[2] = Metabolic stability in mouse liver S9 fraction assessed as half life measured upto 60 mins in presence of NADPH by LC-MS/MS analysis; type: ADME, subcellular
[3] = Metabolic stability in human liver S9 fraction assessed as half life measured upto 60 mins in presence of NADPH by LC-MS/MS analysis; type: ADME, subcellular

SMILES | logP [1] | EC50 (HT-1080) [nM] | half-life [2] [min] | half-life [3] [min] | EC50 (RAW264.7) [nM]
CC(C)C[C@@H](/C=C/C1(C(=O)NC2CC(C)(C)NC(C)(C)C2)CC1)NC(=O)OC(C)(C)C | 3.5 | 800 |  |  | 1130
CC1(C)CC(NC(=O)C(/C=C/[C@@H](NC(=O)OC(C)(C)C)c2ccoc2)(Cc2ccc(F)cc2)Cc2ccc(F)cc2)CC(C)(C)N1 | 6 | 430 |  |  | 
CC1(C)CC(NC(=O)C(/C=C/[C@@H](NC(=O)OC(C)(C)C)c2ccc(F)cc2)(Cc2ccc(F)cn2)Cc2ccc(F)cn2)CC(C)(C)N1 | 5.8 | > 2000 |  |  | 
CC(C)C[C@@H](/C=C/C1(C(=O)NC2CC(C)(C)NC(C)(C)C2)CCOCC1)NC(=O)OC(C)(C)C | 3.1 | 2200 |  |  | 
CC1(C)CC(NC(=O)C/C=C/[C@H](NC(=O)OC(C)(C)C)c2ccccc2)CC(C)(C)N1 | 2.9 | 1300 |  |  | 2760
CC(C)C[C@@H](/C=C/CC(=O)NC1CC(C)(C)NC(C)(C)C1)NC(=O)OC(C)(C)C | 2.8 | 3580 | 9 | 5 | 4090
CC1(C)CC(NC(=O)C(/C=C/[C@H](NC(=O)OC(C)(C)C)c2ccc(F)cc2)(Cc2ccc(F)cc2)Cc2ccc(F)cc2)CC(C)(C)N1 | 7.9 | 340 | 3 | 7 | 250
CC(C)C[C@@H](/C=C/C1(C(=O)NC2CC(C)(C)NC(C)(C)C2)CCCC1)NC(=O)OC(C)(C)C | 4.4 | 560 |  |  | 

Compounds with a lower EC50 (HT-1080), results first:

logP [1] | EC50 (HT-1080) [nM] | half-life [2] [min] | half-life [3] [min] | SMILES | EC50 (RAW264.7) [nM]
2.8 | 70 |  |  | CCOC(=O)c1ccc(NC2CCCCC2)c(N)c1 | 40
4.2 | 330 |  |  | CC1(C)CC(NC(=O)C(C)(C)/C=C/[C@H](NC(=O)OC(C)(C)C)c2ccccc2)CC(C)(C)N1 | 
7.9 | 280 |  |  | CC1(C)CC(NC(=O)C(/C=C/[C@@H](NC(=O)OC(C)(C)C)c2ccc(F)cc2)(Cc2ccc(F)cc2)Cc2ccc(F)cc2)CC(C)(C)N1 | 
7.2 | 130 | 3 | 7 | CC(C)C[C@@H](/C=C/C(Cc1ccccc1)(Cc1ccccc1)C(=O)NC1CC(C)(C)NC(C)(C)C1)NC(=O)OC(C)(C)C | 370
4 | 240 |  |  | CC(C)C[C@@H](/C=C/C(C)(C)C(=O)NC1CC(C)(C)NC(C)(C)C1)NC(=O)OC(C)(C)C | 1150
4 | 250 | 3 | 7 | CC(C)C[C@H](/C=C/C(C)(C)C(=O)NC1CC(C)(C)NC(C)(C)C1)NC(=O)OC(C)(C)C | 1170
6 | 240 |  |  | CC1(C)CC(NC(=O)C(/C=C/[C@H](NC(=O)OC(C)(C)C)c2ccoc2)(Cc2ccc(F)cc2)Cc2ccc(F)cc2)CC(C)(C)N1 | 
7.6 | 180 |  |  | CC(C)C[C@H](/C=C/C(Cc1ccc(F)cc1)(Cc1ccc(F)cc1)C(=O)NC1CC(C)(C)NC(C)(C)C1)NC(=O)OC(C)(C)C | 
7.6 | 330 |  |  | CC(C)C[C@@H](/C=C/C(Cc1ccc(F)cc1)(Cc1ccc(F)cc1)C(=O)NC1CC(C)(C)NC(C)(C)C1)NC(=O)OC(C)(C)C | 600
